Publication PMC8635542, “Pharmacokinetic study on the interaction between succinic acid and irbesartan in rats and its potential mechanism” (Pharmaceutical Biology, 2021)

Tested on: T1, CYP2C9
T1 construct: gene Cyp2c6
Settings: diclofenac as substrate, NADPH-regenerating system (G-6-P, NADP+, G-6-PDH), MgCl2; succinic acid 0-100 μM

Compound `O=C(O)CCC(=O)O` [succinic acid] has an IC50 of 13.9 µM.
